Measured values reported in PubChem BioAssay (NCI).
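In this assay, cells in 96-well plates receive the compound at five concentrations for 48 hours. Endpoints are linearly interpolated between the surrounding concentrations. At the TGI there is no net growth.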

Legend:
Test in all cases: growth of human tumour cells (NCI), 48 h
HT29 colon = test system: HT29 colon
SK-MEL-5 melanoma = test system: SK-MEL-5 melanoma
KM12 colon = test system: KM12 colon
COLO 205 colon = test system: COLO 205 colon
SF-268 CNS = test system: SF-268 CNS
OVCAR-5 ovarian = test system: OVCAR-5 ovarian
MDA-MB-231 breast = test system: MDA-MB-231 breast
HOP-62 NSCLC = test system: HOP-62 NSCLC
A498 renal = test system: A498 renal
MCF7 breast = test system: MCF7 breast
SNB-75 CNS = test system: SNB-75 CNS
MDA-MB-435 = test system: MDA-MB-435
CAKI-1 renal = test system: CAKI-1 renal
MDA-N = test system: MDA-N
NCI-H226 lung = test system: NCI-H226 lung
NCI-H522 lung = test system: NCI-H522 lung
UACC-62 melanoma = test system: UACC-62 melanoma
HCT-116 colon = test system: HCT-116 colon
OVCAR-8 ovarian = test system: OVCAR-8 ovarian
OVCAR-4 ovarian = test system: OVCAR-4 ovarian
IGROV1 ovarian = test system: IGROV1 ovarian
HS 578T breast = test system: HS 578T breast
ACHN renal = test system: ACHN renal
UACC-257 melanoma = test system: UACC-257 melanoma
RXF 393 renal = test system: RXF 393 renal
DU-145 prostate = test system: DU-145 prostate
SF-295 CNS = test system: SF-295 CNS
HCT-15 colon = test system: HCT-15 colon
SK-MEL-2 melanoma = test system: SK-MEL-2 melanoma
U251 CNS = test system: U251 CNS
EKVX NSCLC = test system: EKVX NSCLC
SR leukemia = test system: SR leukemia
SK-MEL-28 melanoma = test system: SK-MEL-28 melanoma
SK-OV-3 ovarian = test system: SK-OV-3 ovarian
786-0 renal = test system: 786-0 renal
BT-549 breast = test system: BT-549 breast
SN12C renal = test system: SN12C renal
PC-3 prostate = test system: PC-3 prostate
TK-10 renal = test system: TK-10 renal
MALME-3M melanoma = test system: MALME-3M melanoma
HOP-92 NSCLC = test system: HOP-92 NSCLC
M14 melanoma = test system: M14 melanoma
SNB-19 CNS = test system: SNB-19 CNS
NCI-H23 lung = test system: NCI-H23 lung
SW-620 colon = test system: SW-620 colon
CCRF-CEM leukemia = test system: CCRF-CEM leukemia
K-562 leukemia = test system: K-562 leukemia
UO-31 renal = test system: UO-31 renal
T-47D breast = test system: T-47D breast
HL-60(TB) leukemia = test system: HL-60(TB) leukemia
A549 NSCLC = test system: A549 NSCLC
OVCAR-3 ovarian = test system: OVCAR-3 ovarian
NCI-H460 lung = test system: NCI-H460 lung
HCC-2998 colon = test system: HCC-2998 colon
LOX IMVI melanoma = test system: LOX IMVI melanoma
RPMI-8226 leukemia = test system: RPMI-8226 leukemia
NCI/ADR-RES ovarian = test system: NCI/ADR-RES ovarian
SF-539 CNS = test system: SF-539 CNS
MOLT-4 leukemia = test system: MOLT-4 leukemia

For `S=C1NCN2CCN(CC2)CNC(=S)C(=S)NCN2CCN(CC2)CNC1=S`, the TGI (HT29 colon) was > 100 µM, the TGI (SK-MEL-5 melanoma) was > 100 µM and the TGI (KM12 colon) was > 100 µM. The TGI (COLO 205 colon) was > 100 µM, the TGI (SF-268 CNS) was > 100 µM and the TGI (OVCAR-5 ovarian) was > 100 µM. The TGI (MDA-MB-231 breast) was > 100 µM, the TGI (HOP-62 NSCLC) was > 100 µM and the TGI (A498 renal) was > 100 µM. For the same compound, the TGI (MCF7 breast) was > 100 µM, the TGI (SNB-75 CNS) was > 100 µM and the TGI (MDA-MB-435) was > 100 µM. For the same compound, the TGI (CAKI-1 renal) was > 100 µM, the TGI (MDA-N) was > 100 µM and the TGI (NCI-H226 lung) was > 100 µM. The TGI (NCI-H522 lung) was > 100 µM, the TGI (UACC-62 melanoma) was > 100 µM and the TGI (HCT-116 colon) was > 100 µM. For the same compound, the TGI (OVCAR-8 ovarian) was > 100 µM, the TGI (OVCAR-4 ovarian) was > 100 µM and the TGI (IGROV1 ovarian) was > 100 µM. For the same compound, the TGI (HS 578T breast) was > 100 µM, the TGI (ACHN renal) was > 100 µM and the TGI (UACC-257 melanoma) was > 100 µM. The TGI (RXF 393 renal) was > 100 µM, the TGI (DU-145 prostate) was > 100 µM and the TGI (SF-295 CNS) was > 100 µM. The TGI (HCT-15 colon) was > 100 µM, the TGI (SK-MEL-2 melanoma) was > 100 µM and the TGI (U251 CNS) was > 100 µM. For the same compound, the TGI (EKVX NSCLC) was > 100 µM, the TGI (SR leukemia) was > 100 µM and the TGI (SK-MEL-28 melanoma) was > 100 µM. For the same compound, the TGI (SK-OV-3 ovarian) was > 100 µM, the TGI (786-0 renal) was > 100 µM and the TGI (BT-549 breast) was > 100 µM. For the same compound, the TGI (SN12C renal) was > 100 µM, the TGI (PC-3 prostate) was > 100 µM and the TGI (TK-10 renal) was > 100 µM. For the same compound, the TGI (MALME-3M melanoma) was > 100 µM, the TGI (HOP-92 NSCLC) was > 100 µM and the TGI (M14 melanoma) was > 100 µM. For the same compound, the TGI (SNB-19 CNS) was > 100 µM, the TGI (NCI-H23 lung) was > 100 µM and the TGI (SW-620 colon) was > 100 µM. The TGI (CCRF-CEM leukemia) was 62.3 µM, the TGI (K-562 leukemia) was > 100 µM and the TGI (UO-31 renal) was > 100 µM. For the same compound, the TGI (T-47D breast) was > 100 µM, the TGI (HL-60(TB) leukemia) was > 100 µM and the TGI (A549 NSCLC) was > 100 µM. For the same compound, the TGI (OVCAR-3 ovarian) was 98.9 µM, the TGI (NCI-H460 lung) was 46.3 µM and the TGI (HCC-2998 colon) was > 100 µM. The TGI (LOX IMVI melanoma) was 56.4 µM, the TGI (RPMI-8226 leukemia) was 97.3 µM and the TGI (NCI/ADR-RES ovarian) was > 100 µM.

In the case of `CN1CCc2c(sc3ncn(N)c(=N)c23)C1`, the TGI (HT29 colon) was > 100 µM, the TGI (SK-MEL-5 melanoma) was > 100 µM and the TGI (KM12 colon) was > 100 µM. For the same compound, the TGI (SF-268 CNS) was > 100 µM, the TGI (OVCAR-5 ovarian) was > 100 µM and the TGI (MDA-MB-231 breast) was > 100 µM. The TGI (HOP-62 NSCLC) was > 100 µM, the TGI (A498 renal) was > 100 µM and the TGI (MCF7 breast) was > 100 µM. For the same compound, the TGI (SNB-75 CNS) was > 100 µM, the TGI (MDA-MB-435) was > 100 µM and the TGI (CAKI-1 renal) was > 100 µM. For the same compound, the TGI (MDA-N) was > 100 µM, the TGI (NCI-H226 lung) was > 100 µM and the TGI (NCI-H522 lung) was > 100 µM. For the same compound, the TGI (UACC-62 melanoma) was > 100 µM, the TGI (HCT-116 colon) was > 100 µM and the TGI (OVCAR-8 ovarian) was > 100 µM. For the same compound, the TGI (OVCAR-4 ovarian) was > 100 µM, the TGI (IGROV1 ovarian) was > 100 µM and the TGI (HS 578T breast) was > 100 µM. The TGI (ACHN renal) was > 100 µM, the TGI (UACC-257 melanoma) was > 100 µM and the TGI (SF-539 CNS) was > 100 µM. The TGI (RXF 393 renal) was > 100 µM, the TGI (DU-145 prostate) was > 100 µM and the TGI (SF-295 CNS) was > 100 µM. For the same compound, the TGI (HCT-15 colon) was > 100 µM, the TGI (SK-MEL-2 melanoma) was > 100 µM and the TGI (U251 CNS) was > 100 µM. The TGI (EKVX NSCLC) was > 100 µM, the TGI (SR leukemia) was > 100 µM and the TGI (SK-MEL-28 melanoma) was > 100 µM. The TGI (SK-OV-3 ovarian) was > 100 µM, the TGI (786-0 renal) was > 100 µM and the TGI (BT-549 breast) was > 100 µM. The TGI (SN12C renal) was > 100 µM, the TGI (PC-3 prostate) was > 100 µM and the TGI (TK-10 renal) was > 100 µM. The TGI (MALME-3M melanoma) was > 100 µM, the TGI (HOP-92 NSCLC) was > 100 µM and the TGI (M14 melanoma) was > 100 µM. The TGI (SNB-19 CNS) was > 100 µM, the TGI (NCI-H23 lung) was > 100 µM and the TGI (SW-620 colon) was > 100 µM. The TGI (CCRF-CEM leukemia) was > 100 µM, the TGI (K-562 leukemia) was > 100 µM and the TGI (T-47D breast) was > 100 µM. For the same compound, the TGI (HL-60(TB) leukemia) was > 100 µM, the TGI (A549 NSCLC) was > 100 µM and the TGI (OVCAR-3 ovarian) was > 100 µM. The TGI (NCI-H460 lung) was > 100 µM, the TGI (LOX IMVI melanoma) was > 100 µM and the TGI (MOLT-4 leukemia) was > 100 µM. For the same compound, the TGI (RPMI-8226 leukemia) was > 100 µM and the TGI (NCI/ADR-RES ovarian) was > 100 µM.
